Assay results taken from patent US10175230B2, “Use of biomarkers for evaluating the effectiveness of active ingredients” (LABORATOIRES EXPANSCIENCE, priority 2013, dated 2019).
Marks after values point to notes of the source that are not given here.

Assays:
hyaluronic acid = test: Production of hyaluronic acid by keratinocytes, ELISA of supernatants; format: cell-based, human; conditions: 10^−7 M, 24 hours, positive reference
Procedure: Normal human epidermal keratinocytes were incubated in the presence of 0.005% and 0.05% avocado perseose or 10^-7 M retinoic acid (all-trans-retinoic acid; Sigma), positive reference.
After 24 hours of incubation, hyaluronic acid produced by the keratinocytes was assayed in the cultured supernatants with an ELISA (Tebu). The quantity of hyaluronic acid measured was related to the number of living cells estimated by means of a neutral red assay.

PAD1 = test: Gene expression of peptidylarginine deiminase (PAD1) by RT-PCR; format: cell-based, human; conditions: 10^−7 M, 48 hours, positive reference
Procedure: Normal human epidermal keratinocytes, cultured in differentiation-inducing medium (supplemented with Ca++), were incubated for 48 hours in the presence of 0.005% and 0.05% avocado perseose or 10^-7M vitamin D3 (1α,25-dihydroxyvitamin D3; Sigma), positive reference.
At the conclusion of the treatment, the RNA were extracted and the gene expression of PAD1 was evaluated by RT-PCR; the reference gene GAPDH was used to normalize the results.

[1] = tested on: Ehrlich ascites carcinoma tumor cells; conditions: perseitol associated with a potassium ion; Shibuya et al. 1999; cited from earlier work

With `CC1=C(/C=C/C(C)=C/C=C/C(C)=C/C(=O)O)C(C)(C)CCC1` [Retinoic acid, all-trans-retinoic acid] the “Hyaluronic acid (ng/ml/living cells)” value (hyaluronic acid) was 544.024 ± 34.026 ng/ml/living cells and the “Increase of hyaluronic acid produced versus control cells” value (hyaluronic acid) was “+119% ***”.
With `C=C1/C(=C\C=C2/CCC[C@]3(C)[C@@H]([C@H](C)CCCC(C)(C)O)CC[C@@H]23)C[C@@H](O)C[C@@H]1O` [Vitamin D3, 1α,25-dihydroxyvitamin D3] the “PAD1 (Relative Quantity normalized by GAPDH)” value (PAD1) was 2.66 and the “Stimulation of PAD1 gene expression versus control cells” value (PAD1) was “+166% **”.
For `OCC(O)C(O)C(O)C(O)C(O)CO` (centres unmarked) [perseitol, Perseitol], the “Incorporation of 3H-leucine” value [1] is listed as “inhibits”.
